Where two headings read alike, the source gives them in different places.
Legend:
[1] = target: BACE1 (Homo sapiens, UniProt P56817); assay: In vitro enzymatic BACE FRET assay; format: biochemical
Method in brief: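 Fluorescence (excitation 488 nm, […]) from cleavage of quenched peptide substrate (50 nM), reaction run 1 h after 1 h enzyme–inhibitor pre-incubation, then neutralised with Tris. Conditions: 0.2 nM enzyme, pH 4.2 acetate 0.05 M, 10% DMSO final, 100 uM genapol.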

[2] = tested on: Aβ40 in conditioned medium of cells stably expressing Amyloid Precursor Protein (APP); assay: In vitro BACE cell-based assay (HEK cell assay, Aβ40 sandwich ELISA); settings: Homo sapiens, HEK293
Method in brief: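 IC50 was derived from percent-of-control Aβ40 against concentration, with Aβ40 quantified by time-resolved fluorescence ELISA (pAb40/6E10-biotin, 4 °C incubations). Supernatants were sampled after 24 h of compound exposure (10 points, starting 100 or 10 μM, 0.1% DMSO) of cells stably expressing APP.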

[3] = target: T1, Cathepsin D (Cat D) (Homo sapiens, UniProt P07339); assay: In vitro enzymatic Cathepsin D (Cat D) FRET assay; format: biochemical; settings: read-out: CatD IC50
T1 construct: made in house; host or cells: CHO cells
Method in brief: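 Fluorescence (500 nm excitation, 580 nm emission) was measured after Tris quench of a 1 h cleavage of 20 nM quenched peptide substrate. Before that, 9 nM CHO-expressed human Cat D sat with compound for 1 h at pH 3.5 (0.05 M citrate, 5 mM CHAPS, 10% DMSO final).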

[4] = tested on: Abeta 40; assay: In vivo inhibition of beta-secretase: percent Abeta 40 reduction in CSF and brain; design: species or system rat; settings: 10 mpk, after 4 hrs
From the text: In Vivo Inhibition of Beta-Secretase
Several animal models, including mouse, rat, dog, and monkey, may be used to screen for inhibition of beta-secretase activity in vivo following administration of a test compound sample. Animals used in this invention can be wild type, transgenic, or gene knockout animals. For example, the Tg2576 mouse model, prepared and conducted as described in Hsiao et al., 1996, Science 274, 99-102, and other non-transgenic or gene knockout animals are useful to analyze in vivo inhibition of Amyloid beta peptide (Abeta) production in the presence of inhibitory test compounds. Generally, 2 to 18 month old Tg2576 mice, gene knockout mice or non-transgenic animals are administered test compounds formulated in vehicles, such as cyclodextran, phosphate buffers, hydroxypropyl methylcellulose or other suitable vehicles. One to twenty-four hours following the administration of compound, animals are sacrificed, and brains as well as cerebrospinal fluid (CSF) and plasma are removed for analysis of A-beta levels and drug or test compound concentrations (Dovey et al., 2001, Journal of Neurochemistry, 76, 173-181) Beginning at time 0, animals are administered by oral gavage, or other means of delivery such as intravenous injection, an inhibitory test compound of up to 100 mg/kg in a standard, conventional formulation, such as 2% hydroxypropyl methylcellulose, 1% Tween80. A separate group of animals receive 2% hydroxypropyl methylcellulose, 1% Tween80 alone, containing no test compound, and serve as a vehicle-control group. At the end of the test period, animals are sacrificed and brain tissues, plasma or cerebrospinal fluid are collected. Brains are either homogenized in 10 volumes (w/v) of 0.2% diethylamine (DEA) in 50 mM NaCl (Best et al., 2005, Journal of Pharmacology and Experimental Therapeutics, 313, 902-908), or in 10 volumes of 0.5% TritonX-100 in Tris-buffered saline (pH at about 7.6). Homogenates are centrifuged at 355,000 g, 4° C. for 30 minutes. CSF or brain supernatants are then analyzed for the presence of A-beta peptide by specific sandwich ELISA assays based on ECL (Electrochemiluminescence) technology. For example, rat Abeta40 is measured using biotinylated-4G8 (Signet) as a capture antibody and Fab40 (an in-house antibody specific to the C-terminal of Abeta40) as a detection antibody. For example, 4 hours after administration of 30 mg/kg oral dose of the test compound in 2% hydroxypropyl methylcellulose, 1% Tween80 (pH2.2) to 200 g male Sprague Dawley rats, amyloid beta peptide levels are measured for reduction by X % and Y % in cerebrospinal fluid and brain, respectively, when compared to the levels measured in the vehicle-treated or control […].
Actual vehicles used: Oral: 2% HPMC, 1% Tween80, pH 2.2
• IV: 5% EtOH, 45% Propylene glycol in 5% Dextrose
The compounds of the invention may be shown to reduce the formation and/or deposition of amyloid beta peptide in the cerebrospinal fluid (CSF) as well as in the brain of a mouse or rat at either 3 mpk, 10 mpk or 30 mpk (mpk=mg compound per kg weight of the animal) dosing concentrations after 4 hrs.

[5] = Abeta 40, rat CSF, read-out: % reduction of rat CSF levels at 10 pmk
[6] = Abeta 40, rat brain, read-out: % reduction of rat brain levels at 10 mpk
[7] = average IC50, read-out: BACE1 Enzyme assay IC50
[8] = average IC50, read-out: BACE1 cell assay IC50

BACE1, sequence (P56817 46-501, species assumed): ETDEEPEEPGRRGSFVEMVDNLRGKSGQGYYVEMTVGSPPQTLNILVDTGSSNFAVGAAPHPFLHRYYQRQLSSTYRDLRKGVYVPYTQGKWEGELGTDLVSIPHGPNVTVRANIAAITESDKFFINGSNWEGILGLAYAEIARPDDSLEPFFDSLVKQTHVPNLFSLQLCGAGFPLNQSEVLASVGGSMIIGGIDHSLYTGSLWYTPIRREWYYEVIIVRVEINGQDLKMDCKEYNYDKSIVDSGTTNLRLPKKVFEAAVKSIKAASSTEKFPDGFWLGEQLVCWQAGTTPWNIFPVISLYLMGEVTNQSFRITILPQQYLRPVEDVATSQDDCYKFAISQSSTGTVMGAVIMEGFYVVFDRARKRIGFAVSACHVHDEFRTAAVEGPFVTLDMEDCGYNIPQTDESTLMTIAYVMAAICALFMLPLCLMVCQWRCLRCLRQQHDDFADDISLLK
T1 sequence (P07339 65-412, species assumed): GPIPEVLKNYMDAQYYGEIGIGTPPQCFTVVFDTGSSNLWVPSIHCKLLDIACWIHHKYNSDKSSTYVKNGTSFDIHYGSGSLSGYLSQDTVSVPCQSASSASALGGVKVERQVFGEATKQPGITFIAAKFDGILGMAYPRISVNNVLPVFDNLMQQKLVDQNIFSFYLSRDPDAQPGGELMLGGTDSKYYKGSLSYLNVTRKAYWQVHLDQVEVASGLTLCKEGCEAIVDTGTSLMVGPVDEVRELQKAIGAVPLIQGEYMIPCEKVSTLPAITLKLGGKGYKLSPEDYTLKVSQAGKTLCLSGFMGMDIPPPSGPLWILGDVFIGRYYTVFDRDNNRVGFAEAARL

| SMILES | IC50 ([1]; read-out: BACE1 FRET assay IC50) [µM] | IC50 ([2]; Aβ40, 24 h incubation, read-out: HEK cell assay IC50) [µM] | IC50 [3] [µM] | inhibition in vivo at 10 mg/kg [4, 5] [%] | inhibition in vivo at 10 mg/kg [4, 6] [%] | IC50 [1, 7] [µM] | IC50 [2, 8] [µM] | IC50 ([3]; average IC50, first procedure) [µM] |
| --- | --- | --- | --- | --- | --- | --- | --- | --- |
| C[C@]1(c2cc(N)ccc2F)N=C(N)[C@@]2(C)CC[C@@H]1S2(=O)=O [Example 35, (1R,4R,5S)-4-(5-amino-2-fluorophenyl)-1,4-dimethyl-8-thia-3-azabicyclo[3.2.1]oct-2-en-2-amine 8,8-dioxide] | 10.1 | 5.81 | 287 | 52 | 46 |  |  |  |
| CC#Cc1ccc(C(=O)Nc2ccc(F)c([C@@]3(C)N=C(N)[C@@]4(C)CC[C@@H]3S4(=O)=O)c2)nc1 [Example 69, N-(3-((1S,2R,5R)-4-amino-2,5-dimethyl-8,8-dioxido-8-thia-3-azabicyclo[3.2.1]oct-3-en-2-yl)-4-fluorophenyl)-5-(1-propyn-1-yl)-2-pyridinecarboxamide] |  |  |  | 42 | 9 | 0.002 | 0.003 | > 400 |
| COc1cnc(C(=O)Nc2ccc(F)c([C@@]3(C)N=C(N)[C@@]4(C)CC[C@@H]3S4(=O)=O)c2)c(C)n1 [Example 79, N-(3-((1S,2R,5R)-4-amino-2,5-dimethyl-8,8-dioxido-8-thia-3-azabicyclo[3.2.1]oct-3-en-2-yl)-4-fluorophenyl)-5-methoxy-3-methyl-2-pyrazinecarboxamide] |  |  |  | 71 | 62 | 0.009 | 0.003 | 1830 |
| Cc1cc(C(F)(F)F)cnc1C(=O)Nc1ccc(F)c([C@@]2(C)N=C(N)[C@@]3(CF)CC[C@@H]2S3(=O)=O)c1 [Example 92, N-(3-((1S,2R,5R)-4-amino-5-(fluoromethyl)-2-methyl-8,8-dioxido-8-thia-3-azabicyclo[3.2.1]oct-3-en-2-yl)-4-fluorophenyl)-3-methyl-5-(trifluoromethyl)-2-pyridinecarboxamide] |  |  |  | 73 | 67 | 0.004 | 0.005 | 789 |
| C[C@]1(c2cc(Nc3ncnc4cc(Cl)cnc34)ccc2F)N=C(N)[C@@]2(CF)CC[C@@H]1S2(=O)=O [Example 98, N-(3-((1S,2R,5R)-4-amino-5-(fluoromethyl)-2-methyl-8,8-dioxido-8-thia-3-azabicyclo[3.2.1]oct-3-en-2-yl)-4-fluorophenyl)-7-chloropyrido[3,2-d]pyrimidin-4-amine] |  |  |  | 70 | 74 | 0.005 | 0.015 | 286 |
| Cc1cc(C(F)F)cnc1C(=O)Nc1ccc(F)c([C@@]2(C)N=C(N)[C@@]3(CF)CC[C@@H]2S3(=O)=O)c1 [Example 103, N-(3-((1S,2R,5R)-4-amino-5-(fluoromethyl)-2-methyl-8,8-dioxido-8-thia-3-azabicyclo[3.2.1]oct-3-en-2-yl)-4-fluorophenyl)-5-(difluoromethyl)-3-methyl-2-pyridinecarboxamide] |  |  |  | 62 | 58 | 0.009 | 0.007 | 891 |
| C[C@]1(c2cc(NC(=O)c3ncc(Cl)cc3Cl)ccc2F)N=C(N)[C@@]2(CF)CC[C@@H]1S2(=O)=O [Example 105, N-(3-((1S,2R,5R)-4-amino-5-(fluoromethyl)-2-methyl-8,8-dioxido-8-thia-3-azabicyclo[3.2.1]oct-3-en-2-yl)-4-fluorophenyl)-3,5-dichloro-2-pyridinecarboxamide] |  |  |  | 74 | 71 | 0.002 | 0.004 | 926 |
| C[C@]1(c2cc(Nc3ncnc4cc(C(F)(F)F)cnc34)ccc2F)N=C(N)[C@@]2(CF)CC[C@@H]1S2(=O)=O [Example 107, N-(3-((1S,2R,5R)-4-amino-5-(fluoromethyl)-2-methyl-8,8-dioxido-8-thia-3-azabicyclo[3.2.1]oct-3-en-2-yl)-4-fluorophenyl)-7-(trifluoromethyl)pyrido[3,2-d]pyrimidin-4-amine] |  |  |  | 53 | 43 | 0.01 | 0.018 | 185 |
| C[C@]1(c2cc(NC(=O)c3cnc(C(F)F)cn3)ccc2F)N=C(N)[C@@]2(CF)CC[C@@H]1S2(=O)=O [Example 109, N-(3-((1S,2R,5R)-4-amino-5-(fluoromethyl)-2-methyl-8,8-dioxido-8-thia-3-azabicyclo[3.2.1]oct-3-en-2-yl)-4-fluorophenyl)-5-(difluoromethyl)-2-pyrazinecarboxamide] |  |  |  | 70 | 57 | 0.017 | 0.007 | 1040 |
| C[C@]1(c2cc(NC(=O)c3ccc(C(F)(F)F)cn3)ccc2F)N=C(N)[C@@]2(CF)CC[C@@H]1S2(=O)=O [Example 110, N-(3-((1S,2R,5R)-4-amino-5-(fluoromethyl)-2-methyl-8,8-dioxido-8-thia-3-azabicyclo[3.2.1]oct-3-en-2-yl)-4-fluorophenyl)-5-(trifluoromethyl)-2-pyridinecarboxamide] |  |  |  | 65 | 54 | 0.006 | 0.005 | 536 |
| Cc1cnc(COc2cnc3c(Nc4ccc(F)c([C@@]5(C)N=C(N)[C@@]6(C)CC[C@@H]5S6(=O)=O)c4)nccc3n2)o1 [Example 146, N-(3-((1S,2R,5R)-4-amino-2,5-dimethyl-8,8-dioxido-8-thia-3-azabicyclo[3.2.1]oct-3-en-2-yl)-4-fluorophenyl)-2-((5-methyl-1,3-oxazol-2-yl)methoxy)pyrido[3,4-b]pyrazin-5-amine] |  |  |  | 35 | 13 | 0.001 | 0.001 | 417 |
